Test results as given in US10059636B2, “Pesticide product including polyanionic polymers” (Verdesian Life Sciences, LLC, priority 2013, dated 2018).

System: cotton
Test: Phosphorous fixation field test with DAP on cotton
Assay type: in vivo
Conditions: for % by weight Phosphorous in Tissue: cotton tissue prior to first bloom
Excerpt: In a field test, two rates of phosphorous as diammonium phosphate (DAP) were broadcast-applied as a pre-plant fertilizer to a cotton field, namely 65 lbs of DAP per acre and 130 lbs of DAP per acre. The tests were two replications each of an unfertilized control, a DAP-only control, and DAP mixed with 0.25% w/w of a Class I polymer formulation. The formulation included 40% w/w of a partial zinc/sodium salt of T5 polymer, 5% w/w zinc, and the balance water, pH about 3,
Tissue tests were taken prior to first bloom from each plot, and the percent of phosphorous in the plant tissue was measured. After harvesting, lint yields were measured.

Compound: N.N.O=P(O)(O)O [DAP, diammonium phosphate]
- Lint Yield (65 lbs of DAP per acre): 712 lbs/acre
- % by weight Phosphorous in Tissue (65 lbs of DAP per acre): 0.41 % by weight
- Lint Yield (130 lbs of DAP per acre): 781 lbs/acre
- % by weight Phosphorous in Tissue (130 lbs of DAP per acre): 0.41 % by weight
